Data: publication PMC10865363, “Structural, Biochemical, and Computational Characterization of Sulfamides as Bimetallic Peptidase Inhibitors” (Journal of Chemical Information and Modeling, 2024)
Where a name gives a salt, the structure may show the parent alone.

What was measured:
[1] = biological target: T1, Prostate-specific membrane antigen (PSMA) (Homo sapiens, UniProt Q04609); experiment: radioenzymatic assay with 3H-NAAG, purified recombinant PSMA; type: biochemical
T1 construct: gene FOLH1; extracellular part of human PSMA; amino acids 44–750
T1 sequence (Q04609 44-750): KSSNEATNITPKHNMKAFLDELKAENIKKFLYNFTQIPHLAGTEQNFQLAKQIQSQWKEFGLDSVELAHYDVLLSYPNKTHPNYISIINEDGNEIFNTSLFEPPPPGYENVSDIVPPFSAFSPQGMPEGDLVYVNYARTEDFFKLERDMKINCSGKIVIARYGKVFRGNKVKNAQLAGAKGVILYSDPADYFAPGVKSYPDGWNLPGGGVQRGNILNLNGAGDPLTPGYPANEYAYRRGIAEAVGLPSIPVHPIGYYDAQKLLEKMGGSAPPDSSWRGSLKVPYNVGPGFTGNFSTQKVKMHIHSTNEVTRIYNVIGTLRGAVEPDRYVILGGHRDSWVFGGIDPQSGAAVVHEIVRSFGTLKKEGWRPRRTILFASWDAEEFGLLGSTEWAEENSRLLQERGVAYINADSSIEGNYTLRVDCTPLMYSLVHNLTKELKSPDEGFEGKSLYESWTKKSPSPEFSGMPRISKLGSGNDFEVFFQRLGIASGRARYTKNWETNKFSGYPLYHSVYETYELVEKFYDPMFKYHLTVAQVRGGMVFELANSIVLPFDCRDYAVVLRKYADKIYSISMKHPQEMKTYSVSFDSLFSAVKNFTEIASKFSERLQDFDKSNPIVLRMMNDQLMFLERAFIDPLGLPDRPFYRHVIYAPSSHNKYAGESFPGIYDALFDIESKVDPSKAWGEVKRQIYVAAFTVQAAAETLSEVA

[2] = biological target: T1, Prostate-specific membrane antigen (PSMA); experiment: X-ray crystal structure ([…] Å); IC50 from radioenzymatic 3H-NAAG assay with purified enzyme; type: biochemical

| IC50 [1] [µM] | IC50 [2] [µM] | Structure (SMILES) |
| --- | --- | --- |
| 165 |  | O=C(O)CC[C@H](NS(=O)(=O)N[C@@H](CCC(=O)O)C(=O)O)C(=O)O [compound 4, (2S,2′S)-2,2′-(Sulfonylbis(azanediyl))dipentanedioic Acid] |
| 103 |  | O=C(O)CC[C@H](NS(=O)(=O)N[C@@H](CC(=O)O)C(=O)O)C(=O)O [compound 3, (S)-2-((N-((S)-1,2-Dicarboxyethyl)sulfamoyl)amino)pentanedioic Acid Tetrasodium Salt] |
|  | 1.2 | NS(=O)(=O)N[C@@H](CCC(=O)O)C(=O)O [compound 9, monosubstituted glutamyl sulfamide 9] |
